Experimental data from US11286231B2, “Hydrogen-bonding compounds, compositions comprising the same, and methods of preparing and using the same” (Wake Forest University Health Sciences, priority 2016, dated 2022).

How the values were obtained:
[1] = test system: HepG2; test: 2D 7-day MTS assay, cell proliferation on hydrogels; assay type: cell-based; conditions: HepG2, 2D on hydrogel, days 1, 4, 7, 490 nm, FIG. 7
Method: (§1) At the proper confluency, the plates were washed with 10 mL of DPBS followed by an addition of 5 mL of trypsin and a 5 min incubation time at 37° C. Upon the conclusion of the incubation time light microscopy was used to determine that the cells had become detached. 5 mL of DMEM-10-1 was added to the plate and the trypsin/DMEM mixture was transferred into a 15 mL conical tube. A 1:4:5 ratio of cell mixture/DMEM-10-1/trypan blue was created in a 2.0 mL cryogenic vial. The mixture contained ˜1.2×10^5 cells-mL-1. The cells were pelleted down by centrifugation at 1500 rpm for 5 minutes and the trypsin/DMEM mixture was aspirated. The cells were resuspended in 10 mL of DMEM-10-1. For the MTS assay, 3.0×10^4 cells per well were seeded (In total 2.43×10^6 cells are needed for 81 wells). In each well (n=3 per time point) of a 96 well plate 16 μL of Heprasil® ([…], 1% w/v), 16 μL of Gelatin-S® (10 mg-mL-1, 1% w/v), 4 μL of Extralink® (5 mg 0.250 μL-1, 2% w/v), and 4 μL of modular catecholamine ([…], 3.6 mM, 1% w/v), C1.1 and C1.2, respectively were mixed by gently pipetting the solution up and down. The wells were then exposed to UV radiation (˜222 nm) for 3 seconds at distance of 1 cm to initiate crosslinking and form the hydrogel matrix. Approximately 30,000 cells were seeded per well; 200 μL of DMEM+10% FBS+1% pen-strep media at a density of 1.2×10^5 cells-mL-1 were aliquoted into each well, Caco-2 and HepG2 cell lines, respectively. A total of 27 wells per time point (3 per condition-positive control, catecholamine (C1.1), and catecholamide (C1.2) for each cell line, Caco-2 and HepG2. For the 3D cell cultural technique and amount of cells used in the live/dead assay refer to the Live/Dead Assay section.
(§2) The MTS assay is widely-used as a nonradioactive quantification of cellular proliferation, viability, and cytotoxicity.28 The MTS assay based on the reduction of MTS tetrazolium compound by viable cells to generate a colored formazan product that is soluble in cell culture media. This conversion is thought to be carried out by NAD(P)H-dependent dehydrogenase enzymes in metabolically active cells. MTS assays were performed using a CellTiter 96® AQueous One Solution Cell Proliferation Assay (G3582, Promega) at days 1, 4, 7. […] At the conclusion of the 45-minute incubation period a Molecular Device SpectraMax M5 plate reader was used to determine the optical density of each well monitored at 490 nm. […] Reported uncertainties were calculated using the standard deviations between the normalized OD values for n=3 runs of each condition.
(§3) In addition to Live/Dead assays, MTS assays were used to quantify the proliferation of cells. In this case, the ability for cells to proliferate in 2D when seeded on the hydrogels was assessed.

[2] = test system: Caco-2; test: as above; assay type: cell-based; conditions: Caco-2, 2D on hydrogel, days 1, 4, 7, 490 nm, FIG. 7
Method: as §1, §2, §3

| Structure (SMILES) | cell proliferation, normalized optical density (MTS) compared to control [1] | cell proliferation, normalized optical density (MTS) compared to control [2] |
| --- | --- | --- |
| C#CCNCc1ccc(O)c(O)c1 [Compound C1.1] | higher | higher |
| C#CCNC(=O)Cc1ccc(O)c(O)c1 [Compound C1.2] | higher | higher |
